{"source": "paper PMC5551460", "about": "(Cell chemical biology, 2017)", "key": {"[1]": {"target": "T1, DGKθ (Homo sapiens, UniProt P52824)", "T1 sequence (P52824 1-942)": "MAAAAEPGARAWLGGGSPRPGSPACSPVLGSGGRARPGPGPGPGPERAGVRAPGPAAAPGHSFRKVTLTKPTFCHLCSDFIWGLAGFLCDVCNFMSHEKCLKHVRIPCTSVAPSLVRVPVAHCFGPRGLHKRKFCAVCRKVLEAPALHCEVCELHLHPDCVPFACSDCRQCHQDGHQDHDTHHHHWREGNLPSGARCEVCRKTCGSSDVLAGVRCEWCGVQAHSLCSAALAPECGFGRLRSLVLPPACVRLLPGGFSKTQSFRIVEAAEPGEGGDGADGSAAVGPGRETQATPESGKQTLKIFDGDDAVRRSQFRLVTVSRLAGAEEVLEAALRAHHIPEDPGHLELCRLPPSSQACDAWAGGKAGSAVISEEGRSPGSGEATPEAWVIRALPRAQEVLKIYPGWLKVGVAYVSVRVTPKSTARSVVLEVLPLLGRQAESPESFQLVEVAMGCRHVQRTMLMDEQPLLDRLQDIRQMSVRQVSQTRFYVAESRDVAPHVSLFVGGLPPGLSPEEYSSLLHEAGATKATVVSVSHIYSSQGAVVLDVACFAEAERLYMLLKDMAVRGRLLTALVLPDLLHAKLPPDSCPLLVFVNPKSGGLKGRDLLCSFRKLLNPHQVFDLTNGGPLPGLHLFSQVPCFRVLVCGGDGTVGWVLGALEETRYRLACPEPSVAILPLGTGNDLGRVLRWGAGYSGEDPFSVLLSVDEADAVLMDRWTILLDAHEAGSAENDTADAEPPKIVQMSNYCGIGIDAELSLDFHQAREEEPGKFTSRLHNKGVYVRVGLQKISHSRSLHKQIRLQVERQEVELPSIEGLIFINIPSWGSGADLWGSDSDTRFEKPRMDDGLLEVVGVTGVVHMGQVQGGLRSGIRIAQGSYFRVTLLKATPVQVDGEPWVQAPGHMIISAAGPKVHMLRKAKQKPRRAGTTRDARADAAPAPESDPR", "assay": "free ATP", "type": "cell-based"}, "[2]": {"target": "DGKζ (Homo sapiens, UniProt Q13574)", "sequence (Q13574 whole entry)": "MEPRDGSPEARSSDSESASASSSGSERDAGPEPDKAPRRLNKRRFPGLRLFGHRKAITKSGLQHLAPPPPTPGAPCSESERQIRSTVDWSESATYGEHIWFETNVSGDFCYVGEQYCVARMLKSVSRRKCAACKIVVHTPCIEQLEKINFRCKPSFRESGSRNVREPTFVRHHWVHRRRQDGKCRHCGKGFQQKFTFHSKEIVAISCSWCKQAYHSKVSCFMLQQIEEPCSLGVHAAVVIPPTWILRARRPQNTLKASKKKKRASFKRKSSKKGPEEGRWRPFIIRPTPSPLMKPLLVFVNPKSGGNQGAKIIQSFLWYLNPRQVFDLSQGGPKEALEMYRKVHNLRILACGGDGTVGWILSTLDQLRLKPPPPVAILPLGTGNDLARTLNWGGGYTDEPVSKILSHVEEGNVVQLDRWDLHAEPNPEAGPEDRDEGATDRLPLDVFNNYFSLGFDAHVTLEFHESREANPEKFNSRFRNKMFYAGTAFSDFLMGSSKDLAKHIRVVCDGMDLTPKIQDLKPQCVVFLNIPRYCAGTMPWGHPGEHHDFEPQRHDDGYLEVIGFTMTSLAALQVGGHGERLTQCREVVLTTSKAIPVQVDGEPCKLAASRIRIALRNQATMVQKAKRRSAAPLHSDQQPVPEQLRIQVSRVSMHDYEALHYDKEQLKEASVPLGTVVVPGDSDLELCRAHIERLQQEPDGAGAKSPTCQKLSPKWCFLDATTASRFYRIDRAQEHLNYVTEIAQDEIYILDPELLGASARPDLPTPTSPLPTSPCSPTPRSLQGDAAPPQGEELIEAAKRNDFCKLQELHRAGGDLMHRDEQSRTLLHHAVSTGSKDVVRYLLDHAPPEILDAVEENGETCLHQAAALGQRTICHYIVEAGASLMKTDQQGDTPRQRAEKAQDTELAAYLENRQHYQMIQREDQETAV", "assay": "free ATP", "type": "cell-based"}, "[3]": {"target": "T2, FER (Homo sapiens, UniProt P16591)", "T2 sequence (P16591 whole entry)": "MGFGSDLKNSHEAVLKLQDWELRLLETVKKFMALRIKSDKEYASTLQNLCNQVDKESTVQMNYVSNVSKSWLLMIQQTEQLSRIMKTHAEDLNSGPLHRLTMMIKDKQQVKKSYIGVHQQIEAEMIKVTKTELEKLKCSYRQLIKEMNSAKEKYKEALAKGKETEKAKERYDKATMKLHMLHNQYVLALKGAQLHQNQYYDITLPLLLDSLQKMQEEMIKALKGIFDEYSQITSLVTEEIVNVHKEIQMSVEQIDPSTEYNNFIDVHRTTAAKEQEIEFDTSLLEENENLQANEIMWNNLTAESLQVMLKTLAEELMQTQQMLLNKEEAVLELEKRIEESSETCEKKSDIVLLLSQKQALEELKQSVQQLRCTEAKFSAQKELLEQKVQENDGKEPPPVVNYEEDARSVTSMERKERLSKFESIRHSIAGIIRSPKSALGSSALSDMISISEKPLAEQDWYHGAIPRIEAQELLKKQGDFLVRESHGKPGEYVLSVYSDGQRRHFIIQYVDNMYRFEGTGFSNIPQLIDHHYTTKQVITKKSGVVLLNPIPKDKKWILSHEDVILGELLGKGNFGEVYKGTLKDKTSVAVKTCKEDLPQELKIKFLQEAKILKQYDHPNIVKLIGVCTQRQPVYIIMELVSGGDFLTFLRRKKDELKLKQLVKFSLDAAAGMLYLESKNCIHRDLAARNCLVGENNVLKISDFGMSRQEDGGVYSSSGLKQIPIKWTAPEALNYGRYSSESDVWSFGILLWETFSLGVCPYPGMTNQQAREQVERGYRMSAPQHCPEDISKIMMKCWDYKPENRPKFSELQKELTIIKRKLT", "assay": "free ATP competition with ATP acyl phosphate probe, SILAC LC-MS", "type": "cell-based"}, "[4]": {"target": "T3, DGKκ (Homo sapiens, UniProt Q5KSL6)", "T3 sequence (Q5KSL6 1-1271)": "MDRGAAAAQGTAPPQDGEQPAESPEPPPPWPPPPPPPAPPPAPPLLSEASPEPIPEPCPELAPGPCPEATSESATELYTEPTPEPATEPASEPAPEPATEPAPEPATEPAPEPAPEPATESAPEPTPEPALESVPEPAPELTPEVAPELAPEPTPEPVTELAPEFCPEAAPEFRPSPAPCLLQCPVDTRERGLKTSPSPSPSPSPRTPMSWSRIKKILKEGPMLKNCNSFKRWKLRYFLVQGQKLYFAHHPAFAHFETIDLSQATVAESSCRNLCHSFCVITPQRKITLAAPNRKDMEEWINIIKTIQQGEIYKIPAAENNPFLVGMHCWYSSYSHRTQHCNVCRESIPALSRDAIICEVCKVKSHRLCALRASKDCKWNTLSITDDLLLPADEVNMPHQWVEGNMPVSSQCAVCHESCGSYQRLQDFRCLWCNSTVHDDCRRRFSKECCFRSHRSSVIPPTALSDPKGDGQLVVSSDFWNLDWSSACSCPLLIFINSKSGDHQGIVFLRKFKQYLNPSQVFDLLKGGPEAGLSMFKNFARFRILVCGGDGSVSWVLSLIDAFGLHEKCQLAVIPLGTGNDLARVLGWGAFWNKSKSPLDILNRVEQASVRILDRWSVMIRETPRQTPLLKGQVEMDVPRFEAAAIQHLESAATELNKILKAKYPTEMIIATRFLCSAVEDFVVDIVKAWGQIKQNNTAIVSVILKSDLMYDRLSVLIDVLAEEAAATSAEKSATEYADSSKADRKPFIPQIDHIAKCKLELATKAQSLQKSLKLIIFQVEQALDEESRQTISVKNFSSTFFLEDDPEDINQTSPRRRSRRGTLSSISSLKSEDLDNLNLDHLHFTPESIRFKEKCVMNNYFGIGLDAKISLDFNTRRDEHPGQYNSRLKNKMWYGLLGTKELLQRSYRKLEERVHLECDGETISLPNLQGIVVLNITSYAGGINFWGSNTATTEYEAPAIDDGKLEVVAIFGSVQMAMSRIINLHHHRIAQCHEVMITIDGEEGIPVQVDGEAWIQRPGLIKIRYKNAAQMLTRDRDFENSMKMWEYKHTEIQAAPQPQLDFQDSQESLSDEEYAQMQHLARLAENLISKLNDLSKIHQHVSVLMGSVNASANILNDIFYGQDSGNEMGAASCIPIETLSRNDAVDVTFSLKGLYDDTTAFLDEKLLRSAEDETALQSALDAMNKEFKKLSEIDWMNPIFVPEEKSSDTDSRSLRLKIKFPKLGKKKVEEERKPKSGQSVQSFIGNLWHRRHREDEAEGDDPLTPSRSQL", "assay": "free ATP", "type": "cell-based"}, "[5]": {"target": "DGKα (Rattus norvegicus, UniProt P51556)", "sequence (P51556 whole entry)": "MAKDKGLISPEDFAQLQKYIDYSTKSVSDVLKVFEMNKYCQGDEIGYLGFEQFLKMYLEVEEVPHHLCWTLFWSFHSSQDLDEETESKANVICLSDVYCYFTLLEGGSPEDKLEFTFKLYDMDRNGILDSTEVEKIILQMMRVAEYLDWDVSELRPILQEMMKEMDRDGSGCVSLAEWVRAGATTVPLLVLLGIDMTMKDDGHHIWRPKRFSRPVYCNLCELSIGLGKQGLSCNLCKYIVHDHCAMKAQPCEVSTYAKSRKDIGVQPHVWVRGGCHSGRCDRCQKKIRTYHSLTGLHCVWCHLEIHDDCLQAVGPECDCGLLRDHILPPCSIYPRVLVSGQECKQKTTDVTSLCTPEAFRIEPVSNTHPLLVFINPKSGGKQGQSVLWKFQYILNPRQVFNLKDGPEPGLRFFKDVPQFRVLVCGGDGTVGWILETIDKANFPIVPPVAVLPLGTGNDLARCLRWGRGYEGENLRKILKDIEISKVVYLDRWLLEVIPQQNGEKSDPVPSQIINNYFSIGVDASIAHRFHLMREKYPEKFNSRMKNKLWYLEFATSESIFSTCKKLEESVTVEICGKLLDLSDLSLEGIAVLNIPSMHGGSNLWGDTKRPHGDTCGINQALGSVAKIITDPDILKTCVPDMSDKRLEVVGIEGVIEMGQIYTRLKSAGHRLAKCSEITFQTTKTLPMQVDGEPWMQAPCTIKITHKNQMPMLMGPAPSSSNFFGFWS", "assay": "ADP-Glo DAG phosphorylation assay in lysate", "type": "biochemical"}, "[6]": {"target": "T2, FER", "assay": "ATP acyl phosphate probe competition, SILAC LC-MS", "type": "cell-based"}}}
{"smiles": "Nc1ncnc2c1ncn2[C@@H]1O[C@H](COP(=O)(O)OP(=O)(O)OP(=O)(O)O)[C@@H](O)[C@H]1O", "note": "[ATP]", "values": [{"measurement": "free ATP (1 mM) competition with ATP acyl phosphate probe, SILAC LC-MS", "setting": "[1]", "value": 14.4}, {"measurement": "free ATP (1 mM) competition with ATP acyl phosphate probe, SILAC LC-MS", "setting": "[2]", "value": 16.7}, {"measurement": "free ATP competition with ATP acyl phosphate probe, SILAC LC-MS", "setting": "[3]", "value": 19.3}, {"measurement": "free ATP (1 mM) competition with ATP acyl phosphate probe, SILAC LC-MS", "setting": "[4]", "value": 15.0}]}
{"smiles": "Fc1ccc(C(=C2CCNCC2)c2ccc(F)cc2)cc1", "note": "[RF001]", "values": [{"measurement": "IC50", "setting": "[5]", "value": 223, "unit": "µM"}]}
{"smiles": "Cc1nc2sccn2c(=O)c1CCN1CCC(=C(c2ccc(F)cc2)c2ccc(F)cc2)CC1", "note": "[ritanserin]", "values": [{"measurement": "ATP acyl phosphate probe competition, SILAC LC-MS (100 μM compound, SR = 7.9)", "setting": "[6]", "value": 7.9}]}
